From publication PMC11576293, “New series of 4,6-diaryl pyrimidines: facile synthesis and antiproliferative activity as dual EGFR/VEGFR-2 inhibitors” (Frontiers in Chemistry, 2024) come the findings set out here.

Each structure is given as a SMILES string.

For the first data set, the system named is A-549. Briefly: Antiproliferative assay (MTT). Format: cell-based. The conditions noted are these: Homo sapiens, A549, A-549 (lung), read-out: Antiproliferative activity IC50 ± SEM, A-549. The source says:
(§1) The MTT test was employed for this investigation ([Hisham et al., 2022]; [El-Sherief et al., 2019]; [Ramadan et al., 2020]). Table 2 presents the four cancer cell lines’ median inhibitory concentration (IC50) and GI50 (average IC50) values.
(§2) The MTT test was employed for this investigation ([Hisham et al., 2022]; [El-Sherief et al., 2019]; [Ramadan et al., 2020]). The IC50 values were derived from dose-response tests. The reported data are derived from at least two independent studies, each comprising three replicates per concentration. See Supplementary Material A1 for more details.
(§3) (in 0.1% DMSO) were added (in 200 μL medium to yield a final concentration of 0.1% v/v) to the wells of plates. A single compound was designated with four wells followed by incubation of plates for 96h at 37°C. After incubation, medium was removed completely from the plates followed by addition of MTT (0.4 mg/mL in medium) to each well and subsequent incubation of plates for 3h. MTT (along with the medium) was removed and DMSO (150μL) was added to each well of the culture plates, followed by vertexing and subsequent measurement of absorbance (at 540 nm) using microplate reader. The data are shown as percentage inhibition of proliferation in comparison with controls containing 0.1% DMSO.
(§4) 4.2.1.2. Assay for antiproliferative effect […]
(§5) (10%) and 1 µg/mL each of aprotinin, leupeptin and pepstatin for 120 min. The purification was performed either at 4 °C or on ice. To record autophosphorylation level, EGFR kinase assay was carried out on the basis of DELFIA/Time-Resolved Fluorometry. The compounds were first
(§6) (1 picture or pasted object on this page, not shown here)
`CCCSc1nc(-c2ccc(OC)cc2)cc(-c2cccc(OC)c2)n1` [Compound 18, 6-(3-Methoxyphenyl)-4-(4-methoxyphenyl)-2-(propylthio)pyrimidine]: the 50% inhibitory concentration (IC50) (usually the concentration that gives 50% inhibition) came out at 45 ± 4 nM.

The test system of another data set is MCF-7. Description: Antiproliferative assay (MTT). Format: cell-based. The conditions noted are these: Homo sapiens, MCF7, MCF-7 (breast), read-out: Antiproliferative activity IC50 ± SEM, MCF-7.
From the text: as §1, §2, §3, §4, §5, §6
Take `CCCSc1nc(-c2ccc(OC)cc2)cc(-c2cccc(OC)c2)n1` [Compound 18, 6-(3-Methoxyphenyl)-4-(4-methoxyphenyl)-2-(propylthio)pyrimidine]: the IC50 was determined as 46 ± 4 nM.

In the next data set the test system is Panc-1. Briefly: Antiproliferative assay (MTT). The conditions noted are these: Homo sapiens, Panc-1 (pancreatic), read-out: Antiproliferative activity IC50 ± SEM, Panc-1. Format: cell-based.
From the text: as §1, §2, §3, §4, §5, §6
As to `CCCSc1nc(-c2ccc(OC)cc2)cc(-c2cccc(OC)c2)n1` [Compound 18, 6-(3-Methoxyphenyl)-4-(4-methoxyphenyl)-2-(propylthio)pyrimidine], the IC50 is 44 ± 4 nM.

Another data set deals with HT-29. Briefly: Antiproliferative assay (MTT). Format: cell-based. The conditions noted are these: Homo sapiens, HT-29 (colon), read-out: Antiproliferative activity IC50 ± SEM, HT-29.
From the text: as §1, §2, §3, §4, §5, §6
For the molecule `CCCSc1nc(-c2ccc(OC)cc2)cc(-c2cccc(OC)c2)n1` [Compound 18, 6-(3-Methoxyphenyl)-4-(4-methoxyphenyl)-2-(propylthio)pyrimidine], the IC50 was 46 ± 4 nM.

The test system of another data set is DU-145. Briefly: NCI-60 single-dose screen. It is filed as cell-based. The conditions noted are these: Homo sapiens, single dose 10 µM, '-' = no inhibition, read-out: % Growth Inhibition. How it is done:
(§7) The National Cancer Institute’s Developmental Therapeutic Program (www.dtp.nci.nih.gov) has tested compounds 9–29 (except compounds 21 and 22) against 60 cancer cell lines from nine types (leukemia, lung, colon, CNS, melanoma, ovarian, renal, prostate, and breast cancer) at a single dose (10 μM) ([El-Sherief et al., 2018]). […] The most sensitive cells included leukemia (SR, K-562, and MOLT-4), lung (NCI-H522, […], and EKVX), breast (MCF-7 and T-47D), colon (HCT-15 and HT-29), and ovarian (NCI/ADR-RES).
(§8) The National Cancer Institute’s Developmental Therapeutic Program (www.dtp.nci.nih.gov) evaluated compounds 9–29 (excluding 21 and 22) against 60 cancer cell lines from nine categories (leukemia, lung, colon, CNS, melanoma, ovarian, renal, prostate, and breast cancer) at a single dose (10 μM) ([El-Sherief et al., 2018]). See Supplementary Material A1 for more details.
Turning to `CCCSc1nc(-c2ccc(OC)cc2)cc(-c2cccc(OC)c2)n1` [Compound 18, 6-(3-Methoxyphenyl)-4-(4-methoxyphenyl)-2-(propylthio)pyrimidine], the inhibition (commonly the relative decrease from the control value, in per cent) at 10 µM was less than 0%.

The next data set concerns OVCAR-3. Description: NCI-60 single-dose screen. It is filed as cell-based. As to conditions: Homo sapiens, single dose 10 µM, '-' = no inhibition, read-out: % Growth Inhibition. How it is done: as §7, §8
Take `CCCSc1nc(-c2ccc(OC)cc2)cc(-c2cccc(OC)c2)n1` [Compound 18, 6-(3-Methoxyphenyl)-4-(4-methoxyphenyl)-2-(propylthio)pyrimidine]: the inhibition at 10 µM was less than 0%.

A further data set has as its system SF-295. Briefly: NCI-60 single-dose screen. Format: cell-based. The conditions noted are these: Homo sapiens, single dose 10 µM, '-' = no inhibition, read-out: % Growth Inhibition. How it is done: as §7, §8
As to `CCCSc1nc(-c2ccc(OC)cc2)cc(-c2cccc(OC)c2)n1` [Compound 18, 6-(3-Methoxyphenyl)-4-(4-methoxyphenyl)-2-(propylthio)pyrimidine], the inhibition at 10 µM was less than 0%.

A further data set relates to HCT-116. Description: NCI-60 single-dose screen. It is filed as cell-based. As to conditions: Homo sapiens, single dose 10 µM, '-' = no inhibition, read-out: % Growth Inhibition. On the procedure:
as §7, §8
As for `CCCSc1nc(-c2ccc(OC)cc2)cc(-c2cccc(OC)c2)n1` [Compound 18, 6-(3-Methoxyphenyl)-4-(4-methoxyphenyl)-2-(propylthio)pyrimidine], the inhibition at 10 µM came out at 3.37%.

The next data set has as its system HS 578T. Briefly: NCI-60 single-dose screen. Format: cell-based. As to conditions: Homo sapiens, single dose 10 µM, '-' = no inhibition, read-out: % Growth Inhibition. How it is done: as §7, §8
On to `CCCSc1nc(-c2ccc(OC)cc2)cc(-c2cccc(OC)c2)n1` [Compound 18, 6-(3-Methoxyphenyl)-4-(4-methoxyphenyl)-2-(propylthio)pyrimidine], for which the inhibition at 10 µM is less than 0%.

A further data set has as its system MDA-MB-435. Briefly: NCI-60 single-dose screen. Format: cell-based. The conditions noted are these: Homo sapiens, single dose 10 µM, '-' = no inhibition, read-out: % Growth Inhibition. On the procedure: as §7, §8
Consider `CCCSc1nc(-c2ccc(OC)cc2)cc(-c2cccc(OC)c2)n1` [Compound 18, 6-(3-Methoxyphenyl)-4-(4-methoxyphenyl)-2-(propylthio)pyrimidine], for which the inhibition at 10 µM is 5.12%.

Another data set deals with CAKI-1. Briefly: NCI-60 single-dose screen. It is filed as cell-based. The conditions noted are these: Homo sapiens, single dose 10 µM, '-' = no inhibition, read-out: % Growth Inhibition. How it is done:
as §7, §8
Take `CCCSc1nc(-c2ccc(OC)cc2)cc(-c2cccc(OC)c2)n1` [Compound 18, 6-(3-Methoxyphenyl)-4-(4-methoxyphenyl)-2-(propylthio)pyrimidine]: the inhibition at 10 µM was determined as 4%.

The test system of another data set is HOP-92. Description: NCI-60 single-dose screen. Format: cell-based. The conditions noted are these: Homo sapiens, single dose 10 µM, '-' = no inhibition, read-out: % Growth Inhibition. How it is done:
as §7, §8
As to `CCCSc1nc(-c2ccc(OC)cc2)cc(-c2cccc(OC)c2)n1` [Compound 18, 6-(3-Methoxyphenyl)-4-(4-methoxyphenyl)-2-(propylthio)pyrimidine], the inhibition at 10 µM was less than 0%.

For the next data set, the system named is SW-620. Briefly: NCI-60 single-dose screen. It is filed as cell-based. As to conditions: Homo sapiens, single dose 10 µM, '-' = no inhibition, read-out: % Growth Inhibition. On the procedure:
as §7, §8
Turning to `CCCSc1nc(-c2ccc(OC)cc2)cc(-c2cccc(OC)c2)n1` [Compound 18, 6-(3-Methoxyphenyl)-4-(4-methoxyphenyl)-2-(propylthio)pyrimidine], the inhibition at 10 µM is less than 0%.

Another data set concerns SN12C. Briefly: NCI-60 single-dose screen. Format: cell-based. As to conditions: Homo sapiens, single dose 10 µM, '-' = no inhibition, read-out: % Growth Inhibition. How it is done:
as §7, §8
Turning to `CCCSc1nc(-c2ccc(OC)cc2)cc(-c2cccc(OC)c2)n1` [Compound 18, 6-(3-Methoxyphenyl)-4-(4-methoxyphenyl)-2-(propylthio)pyrimidine], the inhibition at 10 µM is less than 0%.

System in another data set: not listed separately
Briefly: Cell viability assay (MTT) on normal cells. The conditions noted are these: human, MCF-10A normal mammary gland epithelial cells, 4 days incubation. It is filed as cell-based. How it is done: This experiment examines the impact of the newly developed compounds 9–29 on normal cell lines to assess their safety level. The vitality of the investigated compounds was assessed using the MCF-10 A cell line, a normal human mammary gland epithelial cell line. Following 4 days of incubation on MCF-10 A cells with each examined compound at a concentration of 50 μM, the vitality of the cells was assessed using the MTT test ([Mahmoud et al., 2022]; [Mekheimer et al., 2022]).
This experiment examines the impact of the newly developed compounds 9–29 on normal cell lines to assess their safety level. The viability of 9–29 was assessed using the MCF-10 A cell line, a normal human mammary gland epithelial cell line. Following 4 days of incubation on MCF-10 A cells with each examined compound at a concentration of 50 μM, the vitality of the cells was assessed using the MTT test ([Mahmoud et al., 2022]; [Mekheimer et al., 2022]). Refer to Supplementary Material A1 for more details. […]
4.2. Biological evaluation
4.2.1. Cytotoxic activity using MTT Assay and evaluation of IC50
MTT assay was carried out to study the effect of compounds on mammary epithelial cells (MCF-10A). The medium in which cells were propagated contained Dulbecco's modified Eagle's medium (DMEM)/ Ham's F-12 medium (1:1) supplemented with epidermal growth factor (20 ng/mL), hydrocortisone (500 ng/mL), insulin (10 μg/mL), 2 mM glutamine and 10% foetal calf serum.
as §3, with “After every 2-3 days, the cells were passaged using trypsin ethylenediamine tetra acetic acid (EDTA). The cells were seeded at a density of 10^4 cells mL-1 in flat-bottomed culture plates containing 96 wells each. After 24 h, medium was removed from the plates and the compounds in (in 0.1%” for “(in 0.1%”, “0.1% DMSO. […]” for “0.1% DMSO.”
Consider `CCCSc1nc(-c2ccc(OC)cc2)cc(-c2cccc(OC)c2)n1` [Compound 18, 6-(3-Methoxyphenyl)-4-(4-methoxyphenyl)-2-(propylthio)pyrimidine], for which the viability (in general, the share of living cells, or the viability signal relative to a control) at 4 days, 50 µM came out at 87%.

System in another data set: not given
Assay: not given
Conditions: not given
In the case of `CCCSc1nc(-c2ccc(OC)cc2)cc(-c2cccc(OC)c2)n1` [Compound 18, 6-(3-Methoxyphenyl)-4-(4-methoxyphenyl)-2-(propylthio)pyrimidine], the melting point (in general, the temperature of the solid-liquid transition) fell in the range of 218 to 220 °C.
